Measured values taken from patent US12012419B2, “Heterocyclic compound” (Takeda Pharmaceutical Company Limited, priority 2018, dated 2024).

Experiments:
Male beagle dogs = experiment: Experiment on gastrointestinal motility in dogs; format: in vivo, dog; conditions: 0.03 mg/kg orally, 8 hr after administration, compared with the solvent administration group
Protocol: Experiment on Gastrointestinal Motility in Dogs
Male beagle dogs each equipped with four pressure transducers (one in the ileum and three in the large intestine) were used after an acclimation period for 15 days after surgery. The compound of Example 1 (0.03 mg/kg) was suspended in 0.5% methylcellulose solution and orally administered at a volume of 10 mL/kg. Only 0.5% methylcellulose was administered to a solvent administration group.
HAPC (abbreviation for high amplitude propagated contractions which mean strong contractions propagated from the oral side to the anal side of the large intestine during defecation. Intestinal contraction pattern observed during normal defecation.) at 8 hr after administration was counted using a telemeter for gastrointestinal motility (GTS-850, STARMEDICAL).

Male SD rats = experiment: Rat defecation experiment; format: in vivo; conditions: mean ± standard error
Protocol: Rat Defecation Experiment
Male SD rats (5-6 weeks old) were used after an acclimation period for about 1 week. A test drug (1 mg/kg or […]) was suspended in 0.5% methylcellulose solution and orally administered at a volume of 5 mL/kg, and the number of feces 2 hr later was counted. Only 0.5% methylcellulose was administered to a solvent administration group.

Rat PK test = format: in vivo; conditions: plasma, male SD rats
Protocol: As the rat, 8-week-old male SD rats (Japan SLC, Inc.) were used. They were fed on a solid commercially available diet (CE-2, CLEA Japan, Inc.) and allowed to freely ingest tap water as the drinking water. An intravenous administration solution for the rats was prepared by weighing a test compound, dissolving same in dimethylacetamide (DMA) (Wako Pure Chemical Industries, Ltd.), adding the same volume of 1,3-butanediol (Wako Pure Chemical Industries, Ltd.) and mixing by stirring to give a DMA:1,3-butanediol (1:1, v/v) solution. An oral administration solution was prepared by weighing a test compound, pulverizing same in an agate mortar, and gradually adding 0.5 w/v % aqueous methylcellulose solution to give a suspension. For intravenous administration, the solution was administered into femoral vein of the rats at 0.1 mg/0.5 mL/kg (salt converted to free form). For oral administration, the suspension was administered to the rats at 1 mg/5 mL/kg (salt converted to free form). The cassette dosing method was used for the both administration routes, and the test compound was administered in the following manner.
Compound of Example 1 (Intravenous: 10 Compounds Cassette Administration, Oral: 5 Compounds Cassette Administration)
In the case of intravenous administration, blood samples were collected from the tail vein at 5, 10, 15, 30 min, 1, 2, 4, 8 hr after administration, an anticoagulation treatment with heparin sodium (Shimizu Pharmaceutical Co., Ltd.) was performed, and plasma was collected after centrifugation and subjected to the measurement of drug concentration. In the case of oral administration, blood samples were collected from the tail vein at 15, 30 min, 1, 2, 4, 8 hr after administration, an anticoagulation treatment with heparin sodium was performed, and plasma was collected after centrifugation and subjected to the measurement of drug concentration.
All drug concentrations were measured by LC-MS/MS analysis. […]

MDR1 = biological target: T1, MDR1 (Homo sapiens, UniProt P08183); experiment: MDR1 membrane permeability test; format: in vitro ADME; conditions: LLC-PK1, pH 7.4, 10 μmol/L test compound, Papp B to A / Papp A to B, read-out: Efflux ratio (ER)
T1 construct: expressed in transfected cells
T1 sequence (P08183 whole entry): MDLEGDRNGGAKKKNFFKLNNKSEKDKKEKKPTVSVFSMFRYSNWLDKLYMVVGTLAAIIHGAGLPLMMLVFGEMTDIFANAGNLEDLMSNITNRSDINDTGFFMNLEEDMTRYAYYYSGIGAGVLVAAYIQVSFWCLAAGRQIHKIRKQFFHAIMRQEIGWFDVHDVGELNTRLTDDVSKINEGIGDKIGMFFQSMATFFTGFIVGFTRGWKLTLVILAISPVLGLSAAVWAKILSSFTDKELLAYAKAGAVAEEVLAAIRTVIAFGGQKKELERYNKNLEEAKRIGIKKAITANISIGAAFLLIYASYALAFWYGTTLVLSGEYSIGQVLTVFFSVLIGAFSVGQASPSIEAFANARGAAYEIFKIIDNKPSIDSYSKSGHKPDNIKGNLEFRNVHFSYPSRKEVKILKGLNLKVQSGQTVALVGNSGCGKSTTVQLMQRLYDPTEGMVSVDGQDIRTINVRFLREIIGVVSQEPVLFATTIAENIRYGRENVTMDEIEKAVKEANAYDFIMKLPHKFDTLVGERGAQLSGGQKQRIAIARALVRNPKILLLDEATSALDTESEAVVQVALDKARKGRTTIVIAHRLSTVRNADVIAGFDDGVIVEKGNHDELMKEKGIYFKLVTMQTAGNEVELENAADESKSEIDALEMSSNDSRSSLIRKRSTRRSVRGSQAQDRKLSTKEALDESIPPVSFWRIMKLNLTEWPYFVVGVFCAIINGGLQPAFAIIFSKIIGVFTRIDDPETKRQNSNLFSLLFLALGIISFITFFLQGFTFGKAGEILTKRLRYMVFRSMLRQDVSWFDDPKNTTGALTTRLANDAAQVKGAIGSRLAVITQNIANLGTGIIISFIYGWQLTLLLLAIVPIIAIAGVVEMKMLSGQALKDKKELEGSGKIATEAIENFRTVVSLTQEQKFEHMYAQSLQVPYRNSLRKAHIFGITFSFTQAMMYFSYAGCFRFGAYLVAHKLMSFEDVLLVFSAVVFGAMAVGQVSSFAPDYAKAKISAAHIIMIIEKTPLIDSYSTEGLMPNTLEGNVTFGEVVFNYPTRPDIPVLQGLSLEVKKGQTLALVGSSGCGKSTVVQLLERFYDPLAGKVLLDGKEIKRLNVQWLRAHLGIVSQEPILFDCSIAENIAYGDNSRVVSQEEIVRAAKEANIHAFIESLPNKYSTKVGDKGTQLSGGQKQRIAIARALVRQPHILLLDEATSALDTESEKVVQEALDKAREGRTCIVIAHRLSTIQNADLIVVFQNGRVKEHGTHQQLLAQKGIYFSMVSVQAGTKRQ
Protocol: MDR1 Membrane Permeability Test
When MDR1 is expressed in excess in LLC-PK1 cell, which is a polar cell, MDR1 is localized in apical membrane (A), thus promoting transcellular transport from the basement membrane side (B) toward direction A. When a ratio to the transcellular transport in the opposite direction is taken and a ratio to a control cell in which a mock vector has been introduced is further taken, an efflux ratio of MDR1 to simple diffusion (corrected efflux ratio) is calculated. Similarly, when a brain/plasma concentration ratio in Mdr1(−/−) mouse is divided by a brain/plasma concentration ratio in wild-type mouse, an efflux ratio of Mdr1 to simple diffusion in blood-brain barrier (BBB) (Kp, brain ratio, higher value means lower central nervous system permeability) is calculated. […]
Transcellular transport was performed according to the report of Sugimoto et al. (Reference 3). […] After 1 hr, the sample was collected from the side opposite to the side where the drug solution was added, and the concentration of the test compound was measured by LC-MS/MS. […]
Papp, A to B and Papp, B to A (apparent permeability) were calculated from the formula (1), and the efflux ratio (ER) was calculated from the formula (2). […]

[1] = biological target: T2, human M1 receptor (hCHRM1) (Homo sapiens, UniProt P11229); experiment: Measurement of M1 receptor positive allosteric modulator (M1PAM) activity; format: cell-based; conditions: CHO-K1 cells stably expressing hCHRM1, in the presence of acetylcholine at EC20 concentration, IP1 readout
T2 construct: expressed in transfected cells
T2 sequence (P11229 1-460): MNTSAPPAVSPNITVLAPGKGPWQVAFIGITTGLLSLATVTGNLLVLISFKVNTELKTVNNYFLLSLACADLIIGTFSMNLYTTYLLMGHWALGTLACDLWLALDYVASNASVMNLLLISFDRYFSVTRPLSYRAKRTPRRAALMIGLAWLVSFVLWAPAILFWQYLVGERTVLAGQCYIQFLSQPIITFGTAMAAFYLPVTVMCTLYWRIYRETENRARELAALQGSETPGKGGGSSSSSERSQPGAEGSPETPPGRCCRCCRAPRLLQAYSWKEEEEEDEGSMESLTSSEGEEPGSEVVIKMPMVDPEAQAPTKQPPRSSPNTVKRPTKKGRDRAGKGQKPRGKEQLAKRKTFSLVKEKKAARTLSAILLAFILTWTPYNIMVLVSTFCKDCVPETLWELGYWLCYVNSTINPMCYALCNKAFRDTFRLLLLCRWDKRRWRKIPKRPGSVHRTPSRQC
Protocol: Measurement of M1 Receptor Positive Allosteric Modulator (M1PAM) Activity
The activity of a test compound in the presence of acetylcholine at an EC20 concentration affording about 20% action of the maximum activity was measured as PAM activity. The method therefor is as follows. To a 384-well white plate (Greiner) was added 4 μL of the test compound diluted with IP1 Stimulation buffer (CisBio) containing 0.1% fatty acid-free BSA containing 80 nM acetylcholine. Freeze stock of CHO-K1 cells stably expressing human M1 receptor (hCHRM1) was prepared with IP1 Stimulation buffer (CisBio) containing 0.1% fatty acid-free BSA, 4 μL thereof was added (10,000 cells/well) and the mixture was cultured in a 5% CO2 incubator at 37° C. for 1 hr. 4 μL of a solution (CisBio) containing IP1-d2 and Anti-IP1-cryptate Tb conjugate was added, the mixture was incubated at room temperature for 1 hr, and the time-resolved fluorescence signal was measured on an Envision plate reader (PerkinElmer). The activity (%) of the test compound was calculated by defining the value when acetylcholine was added at the final concentration of 20 μM as 100% and the value when DMSO was added instead of the test compound under acetylcholine-free conditions as 0%, and the EC50 value was calculated as a value of 50% of the concentration dependence curve of the test compound.

SMILES: COCCNC(=O)c1ccc(Cc2cc3c(c4c2OCC4)OCN([C@H]2CCOC[C@@H]2O)C3=O)cc1F [Example 1, 1,5-anhydro-2,3-dideoxy-3-[6-({3-fluoro-4-[(2-methoxyethyl)carbamoyl]phenyl}methyl)-4-oxo-8,9-dihydro-2H-furo[2,3-h][1,3]benzoxazin-3(4H)-yl]-L-threo-pentitol]
- number of HAPCs in the intestinal tract (Male beagle dogs): an increase in the number of HAPCs in the intestinal tract was observed
- number of feces 2 hr later (Male SD rats; 1 mg/kg orally): 14.8 ± 1.2
- number of feces 2 hr later (Male SD rats; 3 mg/kg orally): 13.9 ± 2.1
- MRT (Rat PK test; intravenous 0.1 mg/kg, 10 compounds cassette administration): 48 min
- clearance (Rat PK test; intravenous 0.1 mg/kg, 10 compounds cassette administration, read-out: CL total (converted)): 12.6 mL/min/kg
- Tmax (Rat PK test; oral 1 mg/kg, 5 compounds cassette administration): 60 min
- efflux ratio at 1 h, 10 μmol/L (MDR1): 15
- EC50 [1]: 310 pM
